Assay results from ChEMBL document CHEMBL1201862, “PubChem BioAssay data set” (2004).
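96-well plates; 48 h exposure; 5 concentrations. Endpoints by linear interpolation between flanking doses. Not reached: highest tested concentration assigned. Here, GI50 denotes the concentration required for 50% inhibition of growth.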 The source made the active and inactive calls. No stated cut-off is given here; in the data, active = GI50 up to about 1.1 µM and inactive = higher.

Columns and labels:
Assay in all cases: DTP human tumour cell line panel, 48 h
KM-20L2 = test system: KM-20L2
TK-10 = test system: TK-10
DLD-1 = test system: DLD-1
OVCAR-5 = test system: OVCAR-5
OVCAR-8 = test system: OVCAR-8
IGROV-1 = test system: IGROV-1
SNB-19 = test system: SNB-19
SK-OV-3 = test system: SK-OV-3
M19-MEL = test system: M19-MEL
NCI-H226 = test system: NCI-H226
SK-MEL-28 = test system: SK-MEL-28
LXFL 529 = test system: LXFL 529
ACHN = test system: ACHN
SK-MEL-2 = test system: SK-MEL-2
HCT-116 = test system: HCT-116
NCI-H23 = test system: NCI-H23
LOX IMVI = test system: LOX IMVI
DMS-114 = test system: DMS-114
SN12C = test system: SN12C
CCRF-CEM = test system: CCRF-CEM
HT-29 = test system: HT-29
786-0 = test system: 786-0
NCI-H522 = test system: NCI-H522
UACC-257 = test system: UACC-257
SF-268 = test system: SF-268
NCI-H460 = test system: NCI-H460
HL-60 = test system: HL-60
HCT-15 = test system: HCT-15
HCC 2998 = test system: HCC 2998
HOP-62 = test system: HOP-62
OVCAR-4 = test system: OVCAR-4
SNB-75 = test system: SNB-75
A549 = test system: A549
A498 = test system: A498
Malme-3M = test system: Malme-3M
HOP-18 = test system: HOP-18
SF-539 = test system: SF-539
M14 = test system: M14
OVCAR-3 = test system: OVCAR-3
SK-MEL-5 = test system: SK-MEL-5
RPMI-8226 = test system: RPMI-8226
CAKI-1 = test system: CAKI-1
EKVX = test system: EKVX
U-251 = test system: U-251
UO-31 = test system: UO-31
COLO 205 = test system: COLO 205
UACC-62 = test system: UACC-62
KM12 = test system: KM12
RXF 631 = test system: RXF 631
RXF 393 = test system: RXF 393
MOLT-4 = test system: MOLT-4
SF-295 = test system: SF-295
HOP-92 = test system: HOP-92
K562 = test system: K562
DMS-273 = test system: DMS-273
SNB-78 = test system: SNB-78
SW-620 = test system: SW-620
XF498 = test system: XF498
SR = test system: SR

For `CSc1ccc2c(cc1=O)[C@@H](NC(=O)c1ccc(F)cc1)CCc1cc(O)c(O)c(O)c1-2`, the GI50 (KM-20L2) was > 100 µM (inactive), the GI50 (TK-10) was > 100 µM (inactive) and the GI50 (DLD-1) was > 100 µM (inactive). The GI50 (OVCAR-5) was > 100 µM (inactive), the GI50 (OVCAR-8) was > 100 µM (inactive) and the GI50 (IGROV-1) was > 100 µM (inactive). The GI50 (SNB-19) was > 100 µM (inactive), the GI50 (SK-OV-3) was > 100 µM (inactive) and the GI50 (M19-MEL) was > 100 µM (inactive). The GI50 (NCI-H226) was > 100 µM (inactive), the GI50 (SK-MEL-28) was > 100 µM (inactive) and the GI50 (LXFL 529) was > 100 µM (inactive). The GI50 (ACHN) was > 100 µM (inactive), the GI50 (SK-MEL-2) was > 100 µM (inactive) and the GI50 (HCT-116) was > 100 µM (inactive). The GI50 (NCI-H23) was > 100 µM (inactive), the GI50 (LOX IMVI) was > 100 µM (inactive) and the GI50 (DMS-114) was > 100 µM (inactive). The GI50 (SN12C) was > 100 µM (inactive), the GI50 (CCRF-CEM) was 56 µM (inactive) and the GI50 (HT-29) was > 100 µM (inactive). The GI50 (786-0) was > 100 µM (inactive), the GI50 (NCI-H522) was > 100 µM (inactive) and the GI50 (UACC-257) was > 100 µM (inactive). The GI50 (SF-268) was > 100 µM (inactive), the GI50 (NCI-H460) was > 100 µM (inactive) and the GI50 (HL-60) was > 100 µM (inactive). The GI50 (HCT-15) was > 100 µM, the GI50 (HCC 2998) was > 100 µM (inactive) and the GI50 (HOP-62) was > 100 µM (inactive). For the same molecule, the GI50 (OVCAR-4) was > 100 µM (inactive), the GI50 (SNB-75) was > 100 µM (inactive) and the GI50 (A549) was > 100 µM (inactive). The GI50 (A498) was > 100 µM (inactive), the GI50 (Malme-3M) was > 100 µM (inactive) and the GI50 (HOP-18) was > 100 µM (inactive). The GI50 (SF-539) was > 100 µM (inactive), the GI50 (M14) was > 100 µM (inactive) and the GI50 (OVCAR-3) was > 100 µM (inactive). The GI50 (SK-MEL-5) was > 100 µM (inactive), the GI50 (RPMI-8226) was > 100 µM (inactive) and the GI50 (CAKI-1) was > 100 µM (inactive). For the same molecule, the GI50 (EKVX) was > 100 µM (inactive), the GI50 (U-251) was > 100 µM (inactive) and the GI50 (UO-31) was > 100 µM (inactive). For the same molecule, the GI50 (COLO 205) was > 100 µM (inactive), the GI50 (UACC-62) was > 100 µM (inactive) and the GI50 (KM12) was > 100 µM (inactive). For the same molecule, the GI50 (RXF 631) was > 100 µM (inactive), the GI50 (RXF 393) was > 100 µM (inactive) and the GI50 (MOLT-4) was > 100 µM (inactive). For the same molecule, the GI50 (SF-295) was > 100 µM (inactive), the GI50 (HOP-92) was 84.9 µM (inactive) and the GI50 (K562) was 64.3 µM (inactive). The GI50 (DMS-273) was > 100 µM (inactive), the GI50 (SNB-78) was > 100 µM (inactive) and the GI50 (SW-620) was > 100 µM (inactive).

With `C1=NN(Cc2ccccc2)C(N(Cc2ccccc2)Cc2ccccc2)N1` (stereo unspecified) the GI50 (KM-20L2) was 14.1 µM (inactive), the GI50 (TK-10) was 29.3 µM (inactive) and the GI50 (DLD-1) was 21.1 µM (inactive). For the same molecule, the GI50 (OVCAR-5) was 13 µM (inactive), the GI50 (OVCAR-8) was 23.9 µM (inactive) and the GI50 (IGROV-1) was 14.5 µM (inactive). The GI50 (SNB-19) was 20.9 µM (inactive), the GI50 (SK-OV-3) was 15.4 µM (inactive) and the GI50 (M19-MEL) was 17.5 µM (inactive). The GI50 (NCI-H226) was 18.5 µM (inactive), the GI50 (SK-MEL-28) was 19 µM (inactive) and the GI50 (LXFL 529) was 12.1 µM (inactive). For the same molecule, the GI50 (ACHN) was 19.7 µM (inactive), the GI50 (SK-MEL-2) was 16.4 µM (inactive) and the GI50 (HCT-116) was 9.31 µM (inactive). For the same molecule, the GI50 (NCI-H23) was 16.9 µM (inactive), the GI50 (LOX IMVI) was 15.3 µM (inactive) and the GI50 (DMS-114) was 12.7 µM (inactive). For the same molecule, the GI50 (SN12C) was 17 µM (inactive), the GI50 (CCRF-CEM) was 12.2 µM (inactive) and the GI50 (HT-29) was 15.2 µM (inactive). The GI50 (786-0) was 17.8 µM (inactive), the GI50 (NCI-H522) was 15.7 µM (inactive) and the GI50 (UACC-257) was 16.7 µM (inactive). The GI50 (SF-268) was 21.3 µM (inactive), the GI50 (NCI-H460) was 18.1 µM (inactive) and the GI50 (HL-60) was 4.91 µM (inactive). For the same molecule, the GI50 (HCT-15) was 16.1 µM, the GI50 (HCC 2998) was 17.5 µM (inactive) and the GI50 (HOP-62) was 18.2 µM (inactive). The GI50 (OVCAR-4) was 15.8 µM (inactive), the GI50 (SNB-75) was 23.1 µM (inactive) and the GI50 (A549) was 16.3 µM (inactive). The GI50 (A498) was 17.7 µM (inactive), the GI50 (Malme-3M) was 12.2 µM (inactive) and the GI50 (HOP-18) was 23.3 µM (inactive). For the same molecule, the GI50 (SF-539) was 15.4 µM (inactive), the GI50 (M14) was 11 µM (inactive) and the GI50 (OVCAR-3) was 14 µM (inactive). For the same molecule, the GI50 (SK-MEL-5) was 14.2 µM (inactive), the GI50 (RPMI-8226) was 3.9 µM (inactive) and the GI50 (CAKI-1) was 14.4 µM (inactive). The GI50 (EKVX) was 20.3 µM (inactive), the GI50 (U-251) was 16.7 µM (inactive) and the GI50 (UO-31) was 14.2 µM (inactive). For the same molecule, the GI50 (COLO 205) was 16.9 µM (inactive), the GI50 (UACC-62) was 14 µM (inactive) and the GI50 (KM12) was 16.3 µM (inactive). For the same molecule, the GI50 (RXF 631) was 16.1 µM (inactive), the GI50 (RXF 393) was 16.2 µM (inactive) and the GI50 (MOLT-4) was 15.2 µM (inactive). The GI50 (SF-295) was 14.5 µM (inactive), the GI50 (HOP-92) was 12.8 µM (inactive) and the GI50 (K562) was 8.91 µM (inactive). For the same molecule, the GI50 (DMS-273) was 15.1 µM (inactive), the GI50 (SNB-78) was 29.6 µM (inactive) and the GI50 (SW-620) was 20.6 µM (inactive).

`COc1ccc(NC(=O)c2oc3cc(O)ccc3c(=O)c2C)c([N+](=O)[O-])c1` was tested, and the GI50 (KM-20L2) was > 100 µM (inactive), the GI50 (TK-10) was > 100 µM (inactive) and the GI50 (DLD-1) was > 100 µM (inactive). The GI50 (OVCAR-5) was > 100 µM (inactive), the GI50 (OVCAR-8) was > 100 µM (inactive) and the GI50 (XF498) was > 100 µM (inactive). For the same molecule, the GI50 (SR) was > 100 µM (inactive), the GI50 (IGROV-1) was > 100 µM (inactive) and the GI50 (SNB-19) was > 100 µM (inactive). For the same molecule, the GI50 (SK-OV-3) was > 100 µM (inactive), the GI50 (M19-MEL) was > 100 µM (inactive) and the GI50 (NCI-H226) was > 100 µM (inactive). For the same molecule, the GI50 (SK-MEL-28) was > 100 µM (inactive), the GI50 (LXFL 529) was > 100 µM (inactive) and the GI50 (ACHN) was > 100 µM (inactive). The GI50 (SK-MEL-2) was > 100 µM (inactive), the GI50 (HCT-116) was > 100 µM (inactive) and the GI50 (NCI-H23) was > 100 µM (inactive). The GI50 (LOX IMVI) was > 100 µM (inactive), the GI50 (DMS-114) was > 100 µM (inactive) and the GI50 (SN12C) was > 100 µM (inactive). The GI50 (CCRF-CEM) was > 100 µM (inactive), the GI50 (HT-29) was > 100 µM (inactive) and the GI50 (786-0) was > 100 µM (inactive). For the same molecule, the GI50 (NCI-H522) was > 100 µM (inactive), the GI50 (UACC-257) was > 100 µM (inactive) and the GI50 (SF-268) was > 100 µM (inactive). The GI50 (NCI-H460) was > 100 µM (inactive), the GI50 (HL-60) was > 100 µM (inactive) and the GI50 (HCT-15) was > 100 µM. The GI50 (HCC 2998) was > 100 µM (inactive), the GI50 (HOP-62) was > 100 µM (inactive) and the GI50 (OVCAR-4) was > 100 µM (inactive). For the same molecule, the GI50 (SNB-75) was > 100 µM (inactive), the GI50 (A549) was > 100 µM (inactive) and the GI50 (A498) was > 100 µM (inactive). For the same molecule, the GI50 (Malme-3M) was > 100 µM (inactive), the GI50 (HOP-18) was > 100 µM (inactive) and the GI50 (SF-539) was > 100 µM (inactive). The GI50 (M14) was > 100 µM (inactive), the GI50 (OVCAR-3) was > 100 µM (inactive) and the GI50 (SK-MEL-5) was > 100 µM (inactive). For the same molecule, the GI50 (CAKI-1) was > 100 µM (inactive), the GI50 (EKVX) was > 100 µM (inactive) and the GI50 (U-251) was > 100 µM (inactive). The GI50 (UO-31) was > 100 µM (inactive), the GI50 (COLO 205) was > 100 µM (inactive) and the GI50 (UACC-62) was > 100 µM (inactive). For the same molecule, the GI50 (KM12) was > 100 µM (inactive), the GI50 (RXF 393) was > 100 µM (inactive) and the GI50 (MOLT-4) was > 100 µM (inactive). The GI50 (SF-295) was > 100 µM (inactive), the GI50 (HOP-92) was > 100 µM (inactive) and the GI50 (K562) was > 100 µM (inactive). The GI50 (DMS-273) was > 100 µM (inactive), the GI50 (SNB-78) was > 100 µM (inactive) and the GI50 (SW-620) was > 100 µM (inactive).
